The source of these data is patent publication US9072775B2, “Fluorescent emulsions for optical imaging” (priority 2007, dated 2015).

Data set [1] can be described thus: Fluorescence lifetime from time-resolved fluorescence decay. The format is physicochemical. As to conditions: pulsed excitation 740 nm. Here is the method: The fluorescence decays of the fluorophore free in solution in methanol or encapsulated in the lipid nanoparticles of oil-in-water emulsion type, in suspension in PBS (10 mM, pH 7.3), were measured on a measuring system using a neodymium-vanadate, continuous-wave laser [Millennia Pro, Spectra-Physics, USA], (532 nm, 5 W)-pumped sapphire-titanium laser [Tsunami, Spectra-Physics, USA] (80 MHz, 100 femtoseconds), tunable to a wavelength of 700 nm to 1000 nm. Depending on the operating mode of this device, the laser is injected into a multimode optical fiber, used as excitatory fiber for the sample to be studied. A second (detection) optical fiber collects the fluorescence emitted or the laser scattering via a filtering system. The signal is measured by means of a photomultiplier tube [Hamamatsu, Japan] coupled to a TCSPC counting board [Becker&Hickel, Germany]. The latter is controlled by means of a sampled part (4%) of the laser signal (pulse train) via a rapid photodiode (PD) [Becker&Hickel, Germany] before injection into the optical fiber.
The measurements were carried out using a pulsed excitation wavelength of 740 nm. The fluorescence intensity (in arbitrary units) was measured in order to plot curves reflecting the fluorescence decay (fluorescence intensity (arbitrary units) expressed as a function of time (in ps)); curves not represented. […]

Data set [2] in a line: Quantum yield of fluorescence relative to a reference standard. The format is physicochemical. To be noted: In solution in MeOH; reference Nile Blue perchlorate in ethanol. Here is the method: The quantum yield of fluorescence (Φ) is expressed by the following equation: (Φ)=(number of photons emitted)/(number of photons absorbed).
(§1) It is common practice to determine a quantum yield relative to that of a reference standard, by the techniques known to those skilled in the art. The quantum yield of this formulation was calculated by comparison with a reference standard sample (Nile Blue perchlorate in ethanol, sold by Invitrogen) having a known quantum yield value equal to 0.27. The same measurements (carried out using a Varian spectrophotometer, model Cary 300 and a Perkin Elmer spectrofluorimeter, model LS 50) and calculations were carried out for a solution of DiD fluorophore in methanol (MeOH).

Data set [3] can be described thus: Absorption and emission spectra. To be noted: In solution in MeOH. Type of data set: physicochemical. Here is the method:
as §1

The conditions of data set [4]: in ethanol; cited from earlier work.

Regarding `CCCCCCCCCCCCCCCCCCN1/C(=C/C=C/C=C/C=C/C2=[N+](CCCCCCCCCCCCCCCCCC)c3ccccc3C2(C)C)C(C)(C)c2ccccc21.[I-]` [DiR, 1,1′-dioctadecyl-3,3,3′,3′-tetramethylindotricarbocyanin iodide], the “Lifetime of the DiR fluorophore in solution in methanol” value in data set [1] is listed as 800 ps.
The molecule `CCCCCCCCCCCCCCCCCCN1C(=CC=CC=CC2=[N+](CCCCCCCCCCCCCCCCCC)c3ccccc3C2(C)C)C(C)(C)c2ccccc21.[O-][Cl+3]([O-])([O-])[O-]` [DiD, 1,1′-dioctadecyl-3,3,3′,3′-tetramethylindodicarbocyanin perchlorate] gave a Quantum yield in data set [2] of 0.29. Further, in data set [3], the Emission is 665 nm and the Max. absorption is on record as 644 nm.
For the molecule `CC[N+](CC)=c1ccc2nc3c(cc(N)c4ccccc43)oc-2c1.[O-][Cl+3]([O-])([O-])[O-]` [Nile Blue perchlorate], the “known quantum yield value of reference standard” value in data set [4] is on record as 0.27.
